Data on one compound can be found in patent US20030099960A1, “Compositions and methods for optimizing UGT2B7 substrate dosings and for predicting UGT2B7 substrate toxicity” (The University of Chicago, priority 2001, published 2003).

The target of one data set is T1, human UGT1A1 (Homo sapiens, UniProt P22309).
T1 sequence (P22309 26-533): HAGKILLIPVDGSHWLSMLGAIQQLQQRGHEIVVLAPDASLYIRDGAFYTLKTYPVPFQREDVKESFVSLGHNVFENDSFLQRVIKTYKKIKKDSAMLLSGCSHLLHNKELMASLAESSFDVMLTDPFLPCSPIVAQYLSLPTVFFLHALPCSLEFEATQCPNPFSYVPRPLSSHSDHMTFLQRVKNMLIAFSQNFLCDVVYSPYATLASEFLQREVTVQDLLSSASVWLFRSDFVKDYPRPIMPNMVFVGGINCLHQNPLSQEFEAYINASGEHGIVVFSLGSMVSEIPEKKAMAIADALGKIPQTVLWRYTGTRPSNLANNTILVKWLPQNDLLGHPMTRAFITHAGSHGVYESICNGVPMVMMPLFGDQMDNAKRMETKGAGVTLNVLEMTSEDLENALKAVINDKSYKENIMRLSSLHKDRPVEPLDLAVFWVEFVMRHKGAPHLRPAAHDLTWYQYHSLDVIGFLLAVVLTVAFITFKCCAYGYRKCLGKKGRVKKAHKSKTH
The data set can be described thus: Epirubicin glucuronidation in microsomes expressing UGT1A1. Particulars: Nd = not detectable. The text has this:
(§1) Microsomes from human lymphoblasts and insect cells (BTI-TN-5B1-4) both transfected with a vector containing human UGT1A1, UGT1A3, UGT1A4, UGT1A6, UGT1A9 and UGT2B15 complementary DNA (cDNA) and their negative control (microsomes from cells infected with wild-type vector) were obtained from Gentest Corp. (Woburn, Mass.). Microsomes from insect cells (SF-9) infected with a baculovirus containing human cDNA for UGT2B7 and their negative control were purchased from PanVera (Madison, Wis.).
(§2) For this purpose, dried samples were reconstituted with 0.2 ml of sodium phosphate buffer (0.1 M, pH 6.8) containing 1000 U of β-glucuronidase (type VII, from E. coli) and incubated overnight at 37° C. Reference samples containing no enzyme were treated identically.
(§3) The mobile phase consisted of 30% acetonitrile and 70% 50 mM sodium dihydrogen phosphate (pH adjusted to 4 with 8.5% ortho-phosphoric acid).

The target of another data set is T2, human UGT1A6 (Homo sapiens, UniProt P19224).
T2 sequence (P19224 27-532): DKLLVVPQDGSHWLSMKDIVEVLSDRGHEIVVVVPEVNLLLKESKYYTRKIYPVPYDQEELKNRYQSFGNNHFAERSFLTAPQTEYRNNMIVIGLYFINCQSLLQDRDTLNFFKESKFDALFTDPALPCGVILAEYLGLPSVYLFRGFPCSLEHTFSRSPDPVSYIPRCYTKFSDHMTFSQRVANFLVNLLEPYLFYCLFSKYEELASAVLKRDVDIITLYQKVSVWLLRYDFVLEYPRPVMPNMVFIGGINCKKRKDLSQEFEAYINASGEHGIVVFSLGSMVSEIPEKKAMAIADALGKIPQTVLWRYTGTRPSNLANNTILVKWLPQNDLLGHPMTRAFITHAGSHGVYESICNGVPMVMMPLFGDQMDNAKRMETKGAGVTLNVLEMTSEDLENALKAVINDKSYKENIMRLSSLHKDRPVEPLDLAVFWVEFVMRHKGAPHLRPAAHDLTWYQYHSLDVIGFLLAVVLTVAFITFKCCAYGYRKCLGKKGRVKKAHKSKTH
Description: Epirubicin glucuronidation in microsomes expressing UGT1A6. Particulars: Nd = not detectable.
From the text: as §1, §2, §3

The next data set deals with T3, human UGT1A3 (Homo sapiens, UniProt P35503).
T3 sequence (P35503 29-534): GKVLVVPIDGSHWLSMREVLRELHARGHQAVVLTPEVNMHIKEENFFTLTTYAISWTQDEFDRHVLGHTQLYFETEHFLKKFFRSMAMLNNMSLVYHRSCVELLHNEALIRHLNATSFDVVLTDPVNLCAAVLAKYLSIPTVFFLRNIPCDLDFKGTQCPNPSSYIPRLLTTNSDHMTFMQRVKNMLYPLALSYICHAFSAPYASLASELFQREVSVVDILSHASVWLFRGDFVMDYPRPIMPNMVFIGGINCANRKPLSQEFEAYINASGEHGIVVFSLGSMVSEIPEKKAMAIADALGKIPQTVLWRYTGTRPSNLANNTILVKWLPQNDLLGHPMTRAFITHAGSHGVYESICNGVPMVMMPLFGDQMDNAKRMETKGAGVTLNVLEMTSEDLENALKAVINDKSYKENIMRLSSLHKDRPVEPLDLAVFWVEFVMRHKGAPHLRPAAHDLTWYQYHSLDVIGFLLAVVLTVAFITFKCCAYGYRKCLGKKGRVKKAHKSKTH
The data set can be described thus: Epirubicin glucuronidation in microsomes expressing UGT1A3. Particulars: Nd = not detectable.
From the text: as §1, §2, §3

Another data set deals with T4, human UGT2B15 (Homo sapiens, UniProt P54855).
T4 sequence (P54855 24-530): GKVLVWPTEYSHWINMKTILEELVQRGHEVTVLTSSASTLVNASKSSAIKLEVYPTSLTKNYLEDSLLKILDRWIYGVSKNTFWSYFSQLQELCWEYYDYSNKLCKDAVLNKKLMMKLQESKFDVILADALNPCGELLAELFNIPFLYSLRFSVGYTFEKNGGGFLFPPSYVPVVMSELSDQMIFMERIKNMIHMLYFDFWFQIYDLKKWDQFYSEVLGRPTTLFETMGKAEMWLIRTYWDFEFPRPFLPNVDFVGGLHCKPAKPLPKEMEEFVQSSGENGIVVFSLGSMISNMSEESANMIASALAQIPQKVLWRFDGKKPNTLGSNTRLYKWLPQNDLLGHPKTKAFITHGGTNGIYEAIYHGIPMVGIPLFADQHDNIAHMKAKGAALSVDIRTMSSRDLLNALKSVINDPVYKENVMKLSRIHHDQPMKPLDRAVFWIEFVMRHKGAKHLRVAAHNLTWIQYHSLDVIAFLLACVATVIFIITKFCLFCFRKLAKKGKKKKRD
Description: Epirubicin glucuronidation in microsomes expressing UGT2B15. Conditions: Nd = not detectable.
From the text: as §1, §2, §3

The target in a further data set is T5, human UGT1A9 (Homo sapiens, UniProt O60656).
T5 sequence (O60656 26-530): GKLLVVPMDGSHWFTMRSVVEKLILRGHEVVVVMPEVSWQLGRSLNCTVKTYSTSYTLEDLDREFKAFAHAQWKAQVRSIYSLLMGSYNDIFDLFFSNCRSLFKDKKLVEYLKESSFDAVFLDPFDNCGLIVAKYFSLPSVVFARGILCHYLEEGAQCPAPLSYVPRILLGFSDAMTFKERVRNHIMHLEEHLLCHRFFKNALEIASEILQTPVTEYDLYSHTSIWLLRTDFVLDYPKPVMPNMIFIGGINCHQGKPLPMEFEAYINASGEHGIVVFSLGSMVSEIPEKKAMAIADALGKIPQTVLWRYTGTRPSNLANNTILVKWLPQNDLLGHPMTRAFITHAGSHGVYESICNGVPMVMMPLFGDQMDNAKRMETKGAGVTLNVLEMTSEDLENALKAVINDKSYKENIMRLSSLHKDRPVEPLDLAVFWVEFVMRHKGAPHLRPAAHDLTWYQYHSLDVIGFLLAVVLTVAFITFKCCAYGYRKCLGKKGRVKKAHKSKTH
Description: Epirubicin glucuronidation in microsomes expressing UGT1A9. Particulars: Nd = not detectable.
From the text: as §1, §2, §3

For the next data set, the target named is T6, human UGT1A4 (Homo sapiens, UniProt P22310).
T6 sequence (P22310 29-534): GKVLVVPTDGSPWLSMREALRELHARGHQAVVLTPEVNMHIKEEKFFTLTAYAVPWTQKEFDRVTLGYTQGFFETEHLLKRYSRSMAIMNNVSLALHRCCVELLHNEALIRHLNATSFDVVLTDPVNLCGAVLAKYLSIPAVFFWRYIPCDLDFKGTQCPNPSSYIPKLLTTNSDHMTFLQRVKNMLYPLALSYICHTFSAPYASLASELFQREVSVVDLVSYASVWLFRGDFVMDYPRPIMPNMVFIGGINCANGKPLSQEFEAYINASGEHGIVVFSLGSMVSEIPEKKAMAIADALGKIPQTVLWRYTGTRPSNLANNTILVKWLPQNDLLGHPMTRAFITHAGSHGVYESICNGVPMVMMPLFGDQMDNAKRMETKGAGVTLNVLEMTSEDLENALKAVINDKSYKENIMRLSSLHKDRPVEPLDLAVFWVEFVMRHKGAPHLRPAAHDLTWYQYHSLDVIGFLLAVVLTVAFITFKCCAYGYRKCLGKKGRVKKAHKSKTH
Description: Epirubicin glucuronidation in microsomes expressing UGT1A4. Particulars: Nd = not detectable.
From the text: as §1, §2, §3

The conditions of data set [1]: cited from earlier work.

In the case of `COc1cccc2c1C(=O)c1c(O)c3c(c(O)c1C2=O)C[C@@](O)(C(=O)CO)C[C@@H]3O[C@H]1C[C@H](N)[C@@H](O)[C@H](C)O1` [Epirubicin, 4′-epi-doxorubicin], the “Formation rate of epirubicin glucuronide” value on human UGT1A1, at human UGT1A6, at human UGT1A3, on human UGT2B15, on human UGT1A9 and at human UGT1A4 was “No epirubicin glucuronidating activity” in each case. Moreover, in data set [1] (3-compartment model), the “Median half-life, first phase” value is listed as “about 3.2 minutes”. The “Median half-life, second phase” value in data set [1] (3-compartment model) is around 1.2 h. For the same compound, the “Median half-life, third phase” value in data set [1] (3-compartment model) is around 32 h. Moreover, in data set [1] (elimination primarily biliary), the “Fraction excreted in the urine” value was “less than 15%”. In addition, the Total plasma clearance result in data set [1] (human, in vivo) is “about 46 L/h/m^2”.
